Test results from patent US20080032933A1, “Type V Phosphodiesterase Inhibitors and Natriuretic Polypeptides” (MAYO FOUNDATION FOR MEDICAL EDUCATION AND RESEARCH, priority 2005, published 2008).
Read-outs that look alike come from different tables or passages of the source. No end group written: not given here.

Legend:
[1] = system: male mongrel dogs with overt chronic heart failure produced by rapid ventricular pacing; assay: Humoral, hemodynamic and renal response to acute SQ BNP on day 11 of pacing-induced CHF
Experimental: (§4) Studies were conducted in 2 groups of male mongrel dogs (18-23 kg) with overt chronic heart failure produced by rapid ventricular pacing at 240 beats per minute (bpm) for ten days on a fixed sodium diet. Group 1 (n=6) received Sildenafil (50 mg orally three times a day) during the 10 days of pacing and one dose an hour before the subcutaneous (SQ) administration of BNP on day 11. Group 2 (n=6) received no PDE V inhibitor, but did receive SQ BNP alone on day 11 of CHF.
(§5) Acute SQ BNP administration was performed as follows. On day 11 of rapid ventricular pacing at 240 bpm, an experiment was carried out to determine the cardiorenal and humoral function in both groups and also the response to acute SQ BNP administration (5 μg/kg). […] On the morning of the experiment, only group 1 received a final dose of Sildenafil 50 mg one hour before the dogs were anesthetized with sodium pentobarbital (15 mg/kg, i.v.), intubated, and mechanically ventilated with supplemental oxygen (Harvard respirator, Amersham, Millis, Mass.) at 20 cycles per minute. A flow-directed balloon-tipped thermodilution catheter (Ohmeda, Criticath, Madison, Wis.) was advanced into the pulmonary artery via the external jugular vein for cardiac hemodynamic measurement. The femoral artery was cannulated for blood pressure monitoring and blood sampling. The femoral vein was also cannulated for inulin and normal saline infusion. The left kidney was exposed via a flank incision, and the ureter was cannulated for urine collection. A calibrated electromagnetic flow probe was placed around the renal artery to measure renal blood flow (RBF).
(§6) The experiment began after a 60-minute equilibration period, with a 30-minute baseline urinary clearance. After the 30-minute baseline urinary clearance, SQ canine BNP 5 μg/kg was administered in the right hind leg. Following a 15-minute lead-in period, a 60-minute urinary clearance period was performed. Cardiovascular parameters measured during the acute experiment included mean arterial blood pressure (MAP), right atrial pressure (RAP), mean pulmonary arterial pressure (PAP), cardiac output (CO), and pulmonary capillary wedge pressure (PCWP). CO was determined by thermodilution in triplicate and averaged (Cardiac Output model 9510-A computer, American Edwards Laboratories, Irvine, Calif.). MAP was assessed via direct measurement from the femoral arterial catheter. Systemic vascular resistance (SVR) was calculated as [SVR=(MAP−RAP)/CO]. Inulin was administered intravenously at the start of the equilibration period as a calculated bolus, followed by a 1 mL/min continuous infusion to achieve plasma levels of 40-60 mg/dL. Glomerular filtration rate (GFR) was measured by inulin clearance.
(§7) Cardiovascular hemodynamics were measured at the start of each urinary clearance. Arterial blood was collected in heparin and EDTA tubes and immediately placed on ice midway through each clearance. After centrifugation at 2,500 rpm at 4° C., plasma was decanted and stored at −20° C. until analysis. Urine was collected on ice during the entire period of each clearance for assessment of urine volume, electrolytes, and inulin. Urine collected for cGMP analysis was heated to more than 90° C. before storage.
(§8) Plasma samples for BNP renin and angiotensin II were measured by radioimmunoassay (RIA) using methods described elsewhere (Chen et al., Circulation, 96:I-524 (1997)). Plasma and urinary samples for cGMP were measured by RIA using methods described elsewhere (Steiner et al., J. Biol. Chem., 247:1106-1113 (1972)). Urinary and plasma inulin concentrations were measured by the anthrone method (Davidson and Sachner, J. Lab. Clin. Med., 62:351-356 (1963)).

[2] = system: male mongrel dogs with overt chronic heart failure produced by rapid ventricular pacing; assay: LV remodeling (echocardiography FS, CO, LV mass, plasma BNP) after 10 days of PDE V inhibitor in pacing-induced CHF; type: in vivo, dog
Experimental: (§1) A model of pacing-induced overt chronic heart failure was used (Chen et al., Circulation, 100:2443-2448 (1999)). Briefly, all dogs underwent implantation of a programmable cardiac pacemaker (Medtronic, Minneapolis, Minn.). Under pentobarbital sodium anesthesia (30 mg/kg, intravenous) and artificial ventilation (Harvard respirator, Harvard Apparatus, Millis, Mass.) with 5 L/min supplemental oxygen, a left lateral thoracotomy and pericardiotomy were performed. With the heart exposed, a screw-in epicardial pacemaker lead was implanted into the right ventricle. The pacemaker generator was implanted subcutaneously into the left chest wall and connected to the pacemaker lead. Dogs received pre- and post-operative prophylactic antibiotic treatment with 225 mg clindamycin subcutaneously and 400,000 U procaine penicillin G plus 500 mg dihydrostreptomycin intramuscularly (Combiotic, Pfizer, Inc., New York, N.Y.). Post-operative prophylactic antibiotic was continued through the first two post-operative days. Dogs were fed a fixed sodium diet (58 mEq/day, Hill's ID) and allowed water ad lib. All dogs were walked daily. Appetite, activity, body temperature, and condition of surgical skin sites were documented. Following a 14-day post-operative recovery period, the pacemaker was turned on at 240 bpm.
Echocardiography was carried out at baseline before the pacemaker was turned on and at day 10 of pacing to determine LV fractional shortening (FS). Echocardiographic images were obtained in the conscious dog standing in a minimally restraining sling. Simultaneous electrocardiography was obtained. The optimal images were generally obtained from the right lateral chest wall just above the sternum at the equivalent of the anterior axillary line. Images analogous to the para-sternal long axis and para-sternal short axis views (human echocardiography) were consistently obtained at the base, mid-ventricular, and para-apical levels. LV two-dimensional (2D) and M-mode images were obtained with a 2.5-MHz ultrasonic transducer (General Electric Systems Five). LV M-mode tracings were obtained under 2D guidance using the 2D short-axis views between the two papillary muscles just distal to the mitral valve leaflet tips. All images were obtained in sinus rhythm. Care was taken to ensure that the M-mode cursor transects the LV in the midline, that the LV image is “on axis” (LV is round, not oval indicating an image between short and long axes), and that the cursor is perpendicular to the LV wall detecting maximal LV thickening of both the septal and posterior walls. End-diastole was defined as the maximal LV diastolic diameter at the peak of the R wave on the EKG, and end-systole was defined as the peak of the LV posterior wall motion. M-mode measurements were made in accordance with the American Society of Echocardiography leading-edge convention using the steepest continuous endocardial echoes. Measurements included LV end-diastolic (LVDd), and end-systolic dimensions (LVDs) were averaged for average dimension. FS (%)=[(LVDd−LVSd)/LVDd]*100.
(§2) Glomerular filtration rate (GFR) was measured by inulin clearance.
At the end of the acute experiment, the heart was harvested, and the LV was carefully dissected out and weighed to determine LV mass. The LV mass was divided by the body weight to give the LV mass/Kg body weight.
(§3) Results were expressed as mean ±SEM. […] GraphPad Prism software was used for the above calculation. Statistical significance was accepted as p<0.05.

[3] = system: male mongrel dogs with overt chronic heart failure produced by rapid ventricular pacing; assay: Cardiorenal and neurohumoral profile on day 11 of pacing-induced CHF; type: in vivo, dog
Experimental: as §1, with “bpm. […]” for “bpm.”
as §2, §3

[4] = system: male mongrel dogs with overt chronic heart failure produced by rapid ventricular pacing; conditions: dog, in vivo
Experimental: as §4, §5, §6, §7, §8

[5] = PDE V inhibitor-treated group, Baseline (before SQ BNP)
[6] = PDE V inhibitor-treated group, SQ BNP (FIG. 2)
[7] = PDE V inhibitor-treated group, after SQ BNP
[8] = PDE V inhibitor-treated group, after SQ canine BNP 5 μg/kg (combination)
[9] = chronic administration in experimental overt CHF
[10] = 10 days of treatment, compared to the untreated group (FIG. 1)
[11] = Sildenafil 50 mg orally three times a day for 10 days of pacing, mean ± SE
[12] = Sildenafil 50 mg orally three times a day for 10 days, P < 0.05 versus Untreated
[13] = Untreated CHF group (no PDE V inhibitor), after SQ canine BNP 5 μg/kg alone
[14] = untreated group (no PDE V inhibitor), SQ BNP alone (FIG. 2)

## CCCc1nn(C)c2c(=O)[nH]c(-c3cc(S(=O)(=O)N4CCN(C)CC4)ccc3OCC)nc12 [PDE V inhibitor, Sildenafil]
[1]; [5]
  MAP: 110 ± 4
  PAP: 27 ± 1
  PCWP: 23 ± 1
  Plasma Ang II: 124 ± 2
  Plasma Renin: 16 ± 2
  Plasma cGMP: 43 ± 2 pmol/mL
  RAP: 11 ± 1
  Urinary cGMP Excretion: 4219 ± 900 fmol/min
[1]; [6]
  GFR change with SQ BNP: increase in GFR
  PTFNa change with SQ BNP: decreased significantly
  UNaV change with SQ BNP: increased
[1]; [7]
  CO with SQ BNP: unchanged
  plasma BNP levels with SQ BNP: increased similarly
[1]; [8]
  MAP: 103 ± 7
  PAP: 23 ± 1
  PCWP: 18 ± 1
  Plasma Ang II: 37 ± 2
  Plasma Renin: 9 ± 2
  Plasma cGMP: 46 ± 3 pmol/mL
  RAP: 8 ± 1
  Urinary cGMP Excretion: 8600 ± 1600 fmol/min
[1]; chronic Sildenafil with acute SQ BNP in experimental overt CHF
  cardiovascular hemodynamic effects: without adverse cardiovascular hemodynamic effects
[1]; [9]
  renal response to acute SQ BNP: enhanced
[2]; [10]
  CO (cardiac output): improvement
  LV FS (fractional shortening): improvement
  LV mass: reduction in LV mass
  plasma BNP levels: strong trend for plasma BNP levels to be lower
[2]; [9]
  LV remodeling: improved LV remodeling
[3]; [11]
  MAP: 110 ± 4 mmHg
  PAP: 27 ± 1 mmHg
  PCWP: 23 ± 1 mmHg
  RAP: 11 ± 1 mmHg
  RBF: 160 ± 21 mL/min
  UNaV: 2 ± 1 μEq/min
  UV: 0.12 ± 0.01 mL/min
[3]; [12]
  Plasma cGMP: 43 ± 2 pmol/mL
  Urinary cGMP: 4219 ± 900 pmol/min
[3]; Sildenafil 50 mg orally three times a day for 10 days, inulin clearance
  GFR: 30 ± 5 mL/min

## BNP: canine brain natriuretic peptide administered subcutaneously at 5 μg/kg (SPKMMHKSGCFGRRLDRIGSLSGLGCNVLRKY; ends and bridges not checked; cysteine pairing not given here; UniProt P16859 109-140, looked up)
[4]
  plasma BNP levels with SQ BNP: increased similarly
[1]; [13]
  MAP: 110 ± 5
  PAP: 25 ± 1
  PCWP: 20 ± 1
  Plasma Ang II: 73 ± 31
  Plasma Renin: 20 ± 5
  Plasma cGMP: 25 ± 3 pmol/mL
  RAP: 6 ± 1
  Urinary cGMP Excretion: 3580 ± 351 fmol/min
[1]; [14]
  GFR change with SQ BNP: not observed
  PTFNa change with SQ BNP: only trended to change
  UNaV change with SQ BNP: only trended to change
[1]; untreated group, after SQ BNP alone
  CO with SQ BNP: unchanged
